{"source": "patent US20230172206A1", "about": "(BASF SE, priority 2020, published 2023)", "key": {"[1]": {"system": "Phakopsora pachyrhizi (F129L)", "assay": "Protective control of soybean rust on soybeans (PHAKPA P2)", "type": "in vivo", "conditions": "for % PHAKPA (F129L) Disease level P2 at 4 ppm: protective P2, 4 ppm; for % PHAKPA (F129L) Disease level P2 at 4 ppm / % PHAKPA (F129L) Disease level P2 at 16 ppm: soybean rust F129L isolate; for % PHAKPA (F129L) Disease level P2 at 16 ppm: protective P2, 16 ppm"}, "[2]": {"system": "Phakopsora pachyrhizi (F129L)", "assay": "Protective control of soybean rust on soybeans (PHAKPA P6)", "type": "in vivo", "conditions": "for % PHAKPA (F129L) Disease level P6 at 4 ppm: protective P6, 4 ppm; for % PHAKPA (F129L) Disease level P6 at 4 ppm / % PHAKPA (F129L) Disease level P6 at 16 ppm: soybean rust F129L isolate; for % PHAKPA (F129L) Disease level P6 at 16 ppm: protective P6, 16 ppm"}}}
{"smiles": "CNC(=O)/C(=N/OC)c1cccc(C)c1CO/N=C(\\CC(C)C)c1cccc(C(F)(F)F)c1", "note": "[compound 235]", "values": [{"measurement": "% PHAKPA (F129L) Disease level P2 at 4 ppm", "setting": "[1]", "result": 100, "unit": "%"}, {"measurement": "% PHAKPA (F129L) Disease level P2 at 16 ppm", "setting": "[1]", "result": 73, "unit": "%"}, {"measurement": "% PHAKPA (F129L) Disease level P6 at 4 ppm", "setting": "[2]", "result": 87, "unit": "%"}, {"measurement": "% PHAKPA (F129L) Disease level P6 at 16 ppm", "setting": "[2]", "result": 77, "unit": "%"}]}
{"smiles": "CO/N=C(/C(=O)OC)c1cccc(C)c1CO/N=C(\\C)c1ccccc1OC(F)(F)F", "note": "[compound 236]", "values": [{"measurement": "% PHAKPA (F129L) Disease level P2 at 4 ppm", "setting": "[1]", "result": 97, "unit": "%"}, {"measurement": "% PHAKPA (F129L) Disease level P2 at 16 ppm", "setting": "[1]", "result": 77, "unit": "%"}, {"measurement": "% PHAKPA (F129L) Disease level P6 at 4 ppm", "setting": "[2]", "result": 97, "unit": "%"}, {"measurement": "% PHAKPA (F129L) Disease level P6 at 16 ppm", "setting": "[2]", "result": 100, "unit": "%"}]}
{"smiles": "CNC(=O)/C(=N/OC)c1cccc(C)c1CO/N=C(\\C)c1cc(C(F)(F)F)cc(F)c1NC", "note": "[compound 238]", "values": [{"measurement": "% PHAKPA (F129L) Disease level P2 at 4 ppm", "setting": "[1]", "result": 100, "unit": "%"}, {"measurement": "% PHAKPA (F129L) Disease level P2 at 16 ppm", "setting": "[1]", "result": 53, "unit": "%"}, {"measurement": "% PHAKPA (F129L) Disease level P6 at 4 ppm", "setting": "[2]", "result": 100, "unit": "%"}, {"measurement": "% PHAKPA (F129L) Disease level P6 at 16 ppm", "setting": "[2]", "result": 77, "unit": "%"}]}
{"smiles": "CO/N=C(/C(=O)OC)c1cccc(C)c1CO/N=C(\\C)c1cc(Br)cc(F)c1F", "note": "[compound 240]", "values": [{"measurement": "% PHAKPA (F129L) Disease level P2 at 4 ppm", "setting": "[1]", "result": 70, "unit": "%"}, {"measurement": "% PHAKPA (F129L) Disease level P2 at 16 ppm", "setting": "[1]", "result": 8, "unit": "%"}, {"measurement": "% PHAKPA (F129L) Disease level P6 at 4 ppm", "setting": "[2]", "result": 73, "unit": "%"}, {"measurement": "% PHAKPA (F129L) Disease level P6 at 16 ppm", "setting": "[2]", "result": 3, "unit": "%"}]}
{"smiles": "CNC(=O)/C(=N/OC)c1cccc(C)c1CO/N=C(\\C)c1cc(Br)cc(F)c1F", "note": "[compound 241]", "values": [{"measurement": "% PHAKPA (F129L) Disease level P2 at 4 ppm", "setting": "[1]", "result": 3, "unit": "%"}, {"measurement": "% PHAKPA (F129L) Disease level P2 at 16 ppm", "setting": "[1]", "result": 0, "unit": "%"}, {"measurement": "% PHAKPA (F129L) Disease level P6 at 4 ppm", "setting": "[2]", "result": 33, "unit": "%"}, {"measurement": "% PHAKPA (F129L) Disease level P6 at 16 ppm", "setting": "[2]", "result": 12, "unit": "%"}]}
{"smiles": "C#Cc1cc(F)c(F)c(/C(C)=N/OCc2c(C)cccc2/C(=N\\OC)C(=O)OC)c1", "note": "[compound 242]", "values": [{"measurement": "% PHAKPA (F129L) Disease level P2 at 4 ppm", "setting": "[1]", "result": 87, "unit": "%"}, {"measurement": "% PHAKPA (F129L) Disease level P2 at 16 ppm", "setting": "[1]", "result": 10, "unit": "%"}, {"measurement": "% PHAKPA (F129L) Disease level P6 at 4 ppm", "setting": "[2]", "result": 87, "unit": "%"}, {"measurement": "% PHAKPA (F129L) Disease level P6 at 16 ppm", "setting": "[2]", "result": 20, "unit": "%"}]}
{"smiles": "C#Cc1cc(F)c(F)c(/C(C)=N/OCc2c(C)cccc2/C(=N\\OC)C(=O)NC)c1", "note": "[compound 243]", "values": [{"measurement": "% PHAKPA (F129L) Disease level P2 at 4 ppm", "setting": "[1]", "result": 4, "unit": "%"}, {"measurement": "% PHAKPA (F129L) Disease level P2 at 16 ppm", "setting": "[1]", "result": 0, "unit": "%"}, {"measurement": "% PHAKPA (F129L) Disease level P6 at 4 ppm", "setting": "[2]", "result": 37, "unit": "%"}, {"measurement": "% PHAKPA (F129L) Disease level P6 at 16 ppm", "setting": "[2]", "result": 1, "unit": "%"}]}
{"smiles": "CO/C=C(/C(=O)OC)c1cccc(C)c1CO/N=C(\\C)c1ccccc1C(F)(F)F", "note": "[compound 244]", "values": [{"measurement": "% PHAKPA (F129L) Disease level P2 at 4 ppm", "setting": "[1]", "result": 14, "unit": "%"}, {"measurement": "% PHAKPA (F129L) Disease level P2 at 16 ppm", "setting": "[1]", "result": 0, "unit": "%"}, {"measurement": "PHAKPA (F129L) Disease level (%) P2 at 16 ppm", "setting": "[1]; protective, inoculation 2 days after spraying, 16 ppm, % diseased leaf area", "result": 0, "unit": "%"}, {"measurement": "% PHAKPA (F129L) Disease level P6 at 4 ppm", "setting": "[2]", "result": 15, "unit": "%"}, {"measurement": "% PHAKPA (F129L) Disease level P6 at 16 ppm", "setting": "[2]", "result": 2, "unit": "%"}, {"measurement": "PHAKPA (F129L) Disease level (%) P6 at 16 ppm", "setting": "[2]; protective, inoculation six days after spraying, 16 ppm, % diseased leaf area", "result": 2, "unit": "%"}]}
{"smiles": "CNC(=O)/C(=N/OC)c1cccc(C)c1CO/N=C(\\C)c1cc(Cl)ccc1C(F)(F)F", "note": "[compound 245]", "values": [{"measurement": "% PHAKPA (F129L) Disease level P2 at 4 ppm", "setting": "[1]", "result": 28, "unit": "%"}, {"measurement": "% PHAKPA (F129L) Disease level P2 at 16 ppm", "setting": "[1]", "result": 8, "unit": "%"}, {"measurement": "% PHAKPA (F129L) Disease level P6 at 4 ppm", "setting": "[2]", "result": 13, "unit": "%"}, {"measurement": "% PHAKPA (F129L) Disease level P6 at 16 ppm", "setting": "[2]", "result": 2, "unit": "%"}]}
{"smiles": "CO/N=C(/C(=O)OC)c1cccc(C)c1CO/N=C(\\C)c1cc(Cl)c(F)c(Cl)c1", "note": "[compound 246]", "values": [{"measurement": "% PHAKPA (F129L) Disease level P2 at 4 ppm", "setting": "[1]", "result": 40, "unit": "%"}, {"measurement": "% PHAKPA (F129L) Disease level P2 at 16 ppm", "setting": "[1]", "result": 15, "unit": "%"}, {"measurement": "% PHAKPA (F129L) Disease level P6 at 4 ppm", "setting": "[2]", "result": 77, "unit": "%"}, {"measurement": "% PHAKPA (F129L) Disease level P6 at 16 ppm", "setting": "[2]", "result": 7, "unit": "%"}]}
{"smiles": "CNC(=O)/C(=N/OC)c1cccc(C)c1CO/N=C(\\C)c1cc(Cl)c(F)c(Cl)c1", "note": "[compound 247]", "values": [{"measurement": "% PHAKPA (F129L) Disease level P2 at 4 ppm", "setting": "[1]", "result": 16, "unit": "%"}, {"measurement": "% PHAKPA (F129L) Disease level P2 at 16 ppm", "setting": "[1]", "result": 2, "unit": "%"}, {"measurement": "% PHAKPA (F129L) Disease level P6 at 4 ppm", "setting": "[2]", "result": 33, "unit": "%"}, {"measurement": "% PHAKPA (F129L) Disease level P6 at 16 ppm", "setting": "[2]", "result": 8, "unit": "%"}]}
{"smiles": "CNC(=O)/C(=N/OC)c1cccc(C)c1CO/N=C(\\C)c1cc(F)ccc1Br", "note": "[compound 248]", "values": [{"measurement": "% PHAKPA (F129L) Disease level P2 at 4 ppm", "setting": "[1]", "result": 33, "unit": "%"}, {"measurement": "% PHAKPA (F129L) Disease level P2 at 16 ppm", "setting": "[1]", "result": 2, "unit": "%"}, {"measurement": "% PHAKPA (F129L) Disease level P6 at 4 ppm", "setting": "[2]", "result": 30, "unit": "%"}, {"measurement": "% PHAKPA (F129L) Disease level P6 at 16 ppm", "setting": "[2]", "result": 2, "unit": "%"}]}
{"smiles": "CNC(=O)/C(=N/OC)c1cccc(C)c1CO/N=C(\\C)c1ccc(OC(F)(F)F)cc1Cl", "note": "[compound 271]", "values": [{"measurement": "% PHAKPA (F129L) Disease level P2 at 4 ppm", "setting": "[1]", "result": 5, "unit": "%"}, {"measurement": "% PHAKPA (F129L) Disease level P2 at 16 ppm", "setting": "[1]", "result": 1, "unit": "%"}]}
{"smiles": "CNC(=O)/C(=N/OC)c1cccc(C)c1CO/N=C(\\C)c1cc(C(F)(F)F)ccc1C(F)(F)F", "note": "[compound 272]", "values": [{"measurement": "% PHAKPA (F129L) Disease level P2 at 4 ppm", "setting": "[1]", "result": 60, "unit": "%"}, {"measurement": "% PHAKPA (F129L) Disease level P2 at 16 ppm", "setting": "[1]", "result": 8, "unit": "%"}]}
{"smiles": "CNC(=O)/C(=N/OC)c1cccc(C)c1CO/N=C(\\C)c1cc(C(F)(F)F)ccc1C", "note": "[compound 273]", "values": [{"measurement": "% PHAKPA (F129L) Disease level P2 at 4 ppm", "setting": "[1]", "result": 60, "unit": "%"}, {"measurement": "% PHAKPA (F129L) Disease level P2 at 16 ppm", "setting": "[1]", "result": 3, "unit": "%"}]}
{"smiles": "CNC(=O)/C(=N/OC)c1cccc(C)c1CO/N=C(\\C)c1ccccc1OCOC", "note": "[compound 314]", "values": [{"measurement": "% PHAKPA (F129L) Disease level P2 at 4 ppm", "setting": "[1]", "result": 100, "unit": "%"}, {"measurement": "% PHAKPA (F129L) Disease level P2 at 16 ppm", "setting": "[1]", "result": 40, "unit": "%"}]}
{"smiles": "CNC(=O)/C(=N/OC)c1cccc(C)c1CO/N=C(\\C)c1ccccc1OC(C)C", "note": "[compound 315]", "values": [{"measurement": "% PHAKPA (F129L) Disease level P2 at 4 ppm", "setting": "[1]", "result": 100, "unit": "%"}, {"measurement": "% PHAKPA (F129L) Disease level P2 at 16 ppm", "setting": "[1]", "result": 60, "unit": "%"}]}
{"smiles": "CNC(=O)/C(=N/OC)c1cccc(C)c1CO/N=C(\\C)c1ccccc1Oc1ccccc1", "note": "[compound 321]", "values": [{"measurement": "% PHAKPA (F129L) Disease level P2 at 4 ppm", "setting": "[1]", "result": 100, "unit": "%"}, {"measurement": "% PHAKPA (F129L) Disease level P2 at 16 ppm", "setting": "[1]", "result": 40, "unit": "%"}]}
